IC50 and inhibition data for ten compounds are collected here from patent US9890185B2, “Urea derivatives useful as kinase inhibitors” (Respivert Limited, priority 2013, dated 2018).

The test system of assay [1] is PBMCs. The experiment in a line: LPS-induced IL-8 release in PBMC cells (assay b). Format: cell-based, human. Particulars: Homo sapiens, PBMC; LPS-stimulated PBMCs; read-out: IC50 Values for Inhibition of Cytokine Release, PBMCs IL-8. A digest of the protocol: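 Cytokines (TNFα, IL-8) in supernatants were quantified by sandwich ELISA after a 24 h challenge with 1 ng/mL E. coli LPS at 37° C, 5% CO2. Healthy-donor PBMCs had been exposed to compound for 2 h beforehand. IC50 values were fitted from the concentration-response curves.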

Assay [2] deals with PBMCs. The experiment in a line: IL-2 release in CD3/CD28 stimulated PBMC cells (assay c). It counts as cell-based. Particulars: Homo sapiens, read-out: IC50 Values for Inhibition of Cytokine Release, PBMCs IL-2. The gist of the method:
(§1)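 Compound added to human PBMCs on anti-CD3/anti-CD28-coated wells (0.3 and 3 μg/mL respectively); 3-day culture. Sandwich ELISA of supernatant IL-2 or IFN gamma gives the read-out, with IC50 derived from the dose-response curve.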

Assay [3] addresses p38 MAPKα isoform (MAPK14) (Homo sapiens (Human), UniProt Q16539). The experiment in a line: p38 MAPKα enzyme inhibition (FRET, Z-LYTE, Method 2). Format: biochemical. The gist of the method: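 Z-LYTE FRET: p38 MAPKα (80 ng/mL for Method 1, 200 ng/mL for Method 2, pre-dilution) preincubated 2 hr RT with compound (4–0.004 μg/mL solutions), activity read via MAPKAP-K2 phosphorylation after 1 hr RT and 1 hr protease development. Coumarin/fluorescein ratio gives phosphorylation; % inhibition versus uninhibited control, IC50 from concentration-response curve.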

Assay [4] concerns PBMCs. The experiment in a line: Cell mitosis assay in PBMCs (assay g). Format: cell-based. The following applies: Homo sapiens, PBMC, test compound 5 μg/mL. The gist of the method:
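Metaphase arrest with 0.1 μg/mL demecolcine during the final 2 hr of a 20 hr compound exposure, which follows 48 hr of 2% PHA stimulation of healthy-donor human PBMCs. Mitotic lymphocytes counted by flow cytometry (anti-phospho-histone 3 plus propidium iodide). Inhibition expressed relative to 0.5% DMSO.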

Assay [5] deals with c-Src (Homo sapiens (Human), UniProt P12931). The experiment in a line: c-Src enzyme inhibition (FRET, Z-LYTE). Format: biochemical. The gist of the method: (§2)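 First, compound and enzyme incubate 2 hr at room temperature. Next, FRET peptide (8 μM added solution) and ATP go in for 1 hr, using an 800 μM solution for c-Src and 60 μM for Syk. Finally protease develops for 1 hr; IC50 is fitted to inhibition versus concentration.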

Assay [6] deals with PBMCs. The experiment in a line: IFN gamma release in CD3/CD28 stimulated PBMC cells (assay c). It counts as cell-based. The following applies: Homo sapiens, read-out: IC50 Values for Inhibition of Cytokine Release, PBMCs IFNγ. The gist of the method: as §1
The target of assay [7] is GSK 3α (Homo sapiens (Human), UniProt P49840). The experiment in a line: GSK 3α enzyme inhibition (FRET, Z-LYTE, Method 2). Format: biochemical. The following applies: read-out: IC50 Values for Enzyme Inhibition, GSK3α. The gist of the method:
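Human GSK3α (500 ng/mL) preincubated with compound (4, 0.4, 0.04 or 0.004 μg/mL) at RT for 2 h (Method 1) or 105 min (Method 2). Then FRET peptide (8 μM) and ATP (40 μM) added for 1 h, followed by protease development for 1 h. IC50 from the coumarin/fluorescein emission ratio relative to uninhibited control.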

The target in assay [8] is Syk (Homo sapiens (Human), UniProt P43405). The experiment in a line: Syk enzyme inhibition (FRET, Z-LYTE). It counts as biochemical. The gist of the method: as §2

Molecules are shown by their SMILES.

Sequence of GSK 3α (P49840 whole entry): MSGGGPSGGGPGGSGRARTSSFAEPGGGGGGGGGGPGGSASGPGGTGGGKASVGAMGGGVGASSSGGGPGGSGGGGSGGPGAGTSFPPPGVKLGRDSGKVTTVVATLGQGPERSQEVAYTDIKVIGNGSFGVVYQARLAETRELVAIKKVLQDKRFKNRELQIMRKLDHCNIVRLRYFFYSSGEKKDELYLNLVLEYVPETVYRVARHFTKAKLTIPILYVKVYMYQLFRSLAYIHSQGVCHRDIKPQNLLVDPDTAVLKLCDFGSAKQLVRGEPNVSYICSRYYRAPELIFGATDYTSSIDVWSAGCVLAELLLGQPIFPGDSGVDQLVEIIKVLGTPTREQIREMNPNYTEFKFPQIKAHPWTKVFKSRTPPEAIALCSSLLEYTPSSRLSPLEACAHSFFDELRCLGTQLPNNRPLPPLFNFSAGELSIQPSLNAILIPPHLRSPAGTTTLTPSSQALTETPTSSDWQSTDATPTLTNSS
Sequence of c-Src (P12931 whole entry, looked up): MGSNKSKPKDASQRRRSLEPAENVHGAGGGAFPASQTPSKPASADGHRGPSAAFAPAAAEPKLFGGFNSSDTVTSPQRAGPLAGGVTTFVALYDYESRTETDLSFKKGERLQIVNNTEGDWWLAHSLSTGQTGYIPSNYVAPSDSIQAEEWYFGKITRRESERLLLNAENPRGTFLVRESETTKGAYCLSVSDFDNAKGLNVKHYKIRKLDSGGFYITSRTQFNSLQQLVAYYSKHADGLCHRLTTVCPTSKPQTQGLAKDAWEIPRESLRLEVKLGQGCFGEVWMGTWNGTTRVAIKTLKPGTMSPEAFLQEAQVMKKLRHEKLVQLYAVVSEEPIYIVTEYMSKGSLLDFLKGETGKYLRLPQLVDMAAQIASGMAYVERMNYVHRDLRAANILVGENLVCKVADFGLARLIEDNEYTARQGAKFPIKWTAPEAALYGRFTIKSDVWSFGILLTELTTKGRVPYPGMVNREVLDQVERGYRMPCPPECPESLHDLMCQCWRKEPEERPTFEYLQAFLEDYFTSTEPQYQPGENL
Sequence of p38 MAPKα isoform (MAPK14) (Q16539 whole entry, canonical isoform): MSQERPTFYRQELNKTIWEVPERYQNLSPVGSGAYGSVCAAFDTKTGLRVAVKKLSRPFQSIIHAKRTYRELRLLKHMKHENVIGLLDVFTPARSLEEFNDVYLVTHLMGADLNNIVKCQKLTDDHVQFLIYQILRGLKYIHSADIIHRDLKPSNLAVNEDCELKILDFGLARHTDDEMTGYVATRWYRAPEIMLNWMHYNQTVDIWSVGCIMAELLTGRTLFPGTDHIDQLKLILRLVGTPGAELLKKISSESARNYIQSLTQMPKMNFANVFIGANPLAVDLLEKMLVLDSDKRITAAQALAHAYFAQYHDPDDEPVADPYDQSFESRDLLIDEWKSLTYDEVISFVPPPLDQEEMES

Take `COc1cc(Nc2cc(Oc3ccc(NC(=O)Nc4cc(C(C)(C)C)cc(C(=O)NCCN5CCOCC5)c4OC)c4ccccc34)ccn2)cc(C(=O)NCCN2CCOCC2)c1` [Example 60, 5-(tert-Butyl)-2-methoxy-3-(3-(4-((2-((3-methoxy-5-((2-morpholinoethyl)carbamoyl)phenyl)amino)pyridin-4-yl)oxy)naphthalen-1-yl)ureido)-N-(2-morpholinoethyl)benzamide]: the IC50 in assay [1] was 2.4 nM; in assay [2] it was 101 nM; in assay [3], 128 nM; in assay [5] it was 35 nM; in assay [6] it was 7 nM; in assay [7] it was 1700 nM. For the same compound, in assay [8], the midpoint of inhibition, the IC50, lay at 206 nM. The inhibition at 5 µg/mL in assay [4] came to 47.5%.
Regarding `COc1cc(Nc2cc(Oc3ccc(NC(=O)Nc4cc(C(C)(C)C)cc(C(=O)NCCN5CCOCC5)c4OC)c4ccccc34)ccn2)cc(OC)c1` [Example 62, 5-(tert-Butyl)-3-(3-(4-((2-((3,5-dimethoxyphenyl)amino)pyridin-4-yl)oxy)naphthalen-1-yl)ureido)-2-methoxy-N-(2-morpholinoethyl)benzamide], the IC50 in assay [1] is 2.4 nM; in assay [2] it was 24.9 nM; in assay [3] it was 482 nM; in assay [5], 105 nM; in assay [6], 4.8 nM; in assay [7], greater than 11400 nM. Also, in assay [8], 145 nM corresponded to half-maximal inhibition (IC50). In addition, in assay [4], the inhibition at 5 µg/mL was 54.1%.
With `COc1cccc(Nc2cc(Oc3ccc(NC(=O)Nc4cc(C(C)(C)C)cc(C(=O)NCCN5CCOCC5)c4OC)c4ccccc34)ccn2)c1` [Example 63, 5-(tert-Butyl)-2-methoxy-3-(3-(4-((2-((3-methoxyphenyl)amino)pyridin-4-yl)oxy)naphthalen-1-yl)ureido)-N-(2-morpholinoethyl)benzamide], the half-maximal inhibitory concentration (IC50) is 2.5 nM in assay [1]; 17.5 nM in assay [2]; 811 nM in assay [3]; 98 nM in assay [5]; 7.7 nM in assay [6]; 7660 nM in assay [7]. In assay [8], this compound yielded a 50% inhibitory concentration (IC50) of 154 nM. In assay [4], the inhibition at 5 µg/mL amounted to 45.1%.
`COc1cc(Nc2cc(Oc3ccc(NC(=O)Nc4cc(C(C)(C)C)cc(C(=O)NCCN5CC[S+]([O-])CC5)c4OC)c4ccccc34)ccn2)cc(OC)c1` [Example 64, 5-(tert-Butyl)-3-(3-(4-((2-((3,5-dimethoxyphenyl)amino)pyridin-4-yl)oxy)naphthalen-1-yl)ureido)-2-methoxy-N-(2-(1-oxidothiomorpholino)ethyl)benzamide]: the IC50 in assay [1] amounted to 2.6 nM; in assay [2], 62.7 nM; in assay [3], 945 nM; in assay [5] it was 90 nM; in assay [6] it was 13.3 nM; in assay [7], 9390 nM. In assay [8], this compound had an IC50 of 156 nM. The inhibition at 5 µg/mL in assay [4] amounted to 32.4%.
Take `COc1cc(Nc2cc(Oc3ccc(NC(=O)Nc4cc(C(C)(C)C)cc(CC(N)=O)c4OC)c4ccccc34)ccn2)cc(C(=O)NCCN2CC[S+]([O-])CC2)c1` [Example 65, 3-((4-((4-(3-(3-(2-Amino-2-oxoethyl)-5-(tert-butyl)-2-methoxyphenyl)ureido)naphthalen-1-yl)oxy)pyridin-2-yl)amino)-5-methoxy-N-(2-(1-oxidothiomorpholino)ethyl)benzamide]: the IC50 in assay [1] came to 4.3 nM; in assay [2], 31.3 nM; in assay [3] it was 17 nM; in assay [5] it was 15 nM; in assay [6], 7.6 nM; in assay [7], 1220 nM. This compound also had an IC50 in assay [8] of 190 nM. Besides, the inhibition at 5 µg/mL in assay [4] was determined as 8.7%.
As for `COc1cc(Nc2cc(Oc3ccc(NC(=O)Nc4cc(C(C)(C)C)cc(OC(CO)CO)c4OC)c4ccccc34)ccn2)cc(C(N)=O)c1` [Example 66, 3-((4-((4-(3-(5-(tert-Butyl)-3-((1,3-dihydroxypropan-2-yl)oxy)-2-methoxyphenyl)ureido)naphthalen-1-yl)oxy)pyridin-2-yl)amino)-5-methoxybenzamide], the IC50 in assay [1] came out at 2.2 nM; in assay [2], 60.9 nM; in assay [3], 222 nM; in assay [5], 54 nM; in assay [6] it was 7.7 nM; in assay [7], 4280 nM. Further, the concentration for half-maximal inhibition (IC50) in assay [8] was 918 nM. In addition, the inhibition at 5 µg/mL in assay [4] amounted to 46.4%.
In the case of `COc1cc(Nc2cc(Oc3ccc(NC(=O)Nc4cc(C(C)(C)C)cc(CC(N)=O)c4OC)c4ccccc34)ccn2)cc(C(=O)NCCCN2CC[S+]([O-])CC2)c1` [Example 68, 3-((4-((4-(3-(3-(2-Amino-2-oxoethyl)-5-(tert-butyl)-2-methoxyphenyl)ureido)naphthalen-1-yl)oxy)pyridin-2-yl)amino)-5-methoxy-N-(3-(1-oxidothiomorpholino)propyl)benzamide], the IC50 was 3.8 nM in assay [1]; 40.6 nM in assay [2]; 13 nM in assay [3]; 18 nM in assay [5]; 8 nM in assay [6]; 1320 nM in assay [7]. Further, in assay [8], the midpoint of inhibition, the IC50, lay at 143 nM. In addition, the inhibition at 5 µg/mL in assay [4] is -0.6%.
As to `COc1cc(Nc2cc(Oc3ccc(NC(=O)Nc4cc(C(C)(C)C)cc([S+](C)[O-])c4OC)c4ccccc34)ccn2)cc(C(=O)NCCN2CC[S+]([O-])CC2)c1` (centres unmarked) [Example 69, 3-((4-((4-(3-(5-(tert-Butyl)-2-methoxy-3-(methylsulfinyl)phenyl)ureido)naphthalen-1-yl)oxy)pyridin-2-yl)amino)-5-methoxy-N-(2-(1-oxidothiomorpholino)ethyl)benzamide], the IC50 in assay [1] amounted to 2.3 nM; in assay [2], 75.7 nM; in assay [3], 16 nM; in assay [5], 12 nM; in assay [6] it was 7.6 nM; in assay [7] it was 1960 nM. In assay [8], inhibition was half-maximal at 124 nM (IC50). Further, the inhibition at 5 µg/mL in assay [4] was found to be 8.9%.
`COc1cc(Nc2cc(Oc3ccc(NC(=O)Nc4cc(C(C)(C)C)cc(CNC(C)=O)c4OC)c4ccccc34)ccn2)cc(C(=O)NCCN2CC[S+]([O-])CC2)c1` [Example 71, 3-((4-((4-(3-(3-(Acetamidomethyl)-5-(tert-butyl)-2-methoxyphenyl)ureido)naphthalen-1-yl)oxy)pyridin-2-yl)amino)-5-methoxy-N-(2-(1-oxidothiomorpholino)ethyl)benzamide]: the IC50 in assay [1] was found to be 3.4 nM; in assay [2] it was 33.7 nM; in assay [3] it was 25 nM; in assay [5], 14 nM; in assay [6], 7.2 nM; in assay [7], 1200 nM. In assay [8], the half-maximal inhibitory concentration (IC50) is 26 nM. The inhibition at 5 µg/mL in assay [4] worked out at 48.3%.
In the case of `COc1cc(Nc2cc(Oc3ccc(NC(=O)Nc4cc(C(C)(C)C)cc(P(C)(C)=O)c4OC)c4ccccc34)ccn2)cc(S(=O)(=O)N(C)CCN2CCOCC2)c1` [Example 75, 3-((4-((4-(3-(5-(tert-Butyl)-3-(dimethylphosphoryl)-2-methoxyphenyl)ureido)naphthalen-1-yl)oxy)pyridin-2-yl)amino)-5-methoxy-N-methyl-N-(2-morpholinoethyl)benzenesulfonamide], the IC50 in assay [1] was 1.6 nM; in assay [2], 115 nM; in assay [3] it was 134 nM; in assay [5] it was 78 nM; in assay [6] it was 3 nM; in assay [7], 2320 nM. The compound further registered an IC50 in assay [8] greater than 1100 nM. Also, in assay [4], the inhibition at 5 µg/mL was 13.9%.
